{
  "source": "patent US20240041830A1",
  "about": "“CIRCULATING BIOMARKERS OF RESPONSE TO PD-1/PD-L1 BLOCKADE AND GSK-3 INHIBITION” (Brown University, priority 2022, published 2024)",
  "assay_type_in_all_cases": "cell-based, human",
  "key": {"KM12C": {"tested_on": "KM12C", "test": "microarray analysis", "conditions": "1 μM, 24 hours, vs untreated"}, "HT-29": {"tested_on": "HT-29", "test": "Western blot analysis", "procedure": "(§1) Pyroptosis assay. Recombinant Human TNF-α (Cat #300-01A, PeproTech, Rocky Hill, NJ, USA) and Recombinant Human IFN-γ (Cat #300-02, PeproTech, Rocky Hill, NJ, USA) were purchased for use in western blot analysis while rhTRAIL was generated in-house. See Kim et al., J. Biol. Chem., 279, 40044-40052 (2004).\n(§2) Western blot analysis. Cells were plated in a 6-well plate and incubated overnight before the spent media was replaced with drugged media. Drug treatment lasted for indicated durations. Protein was extracted using radioimmunoprecipitation (RIPA) assay buffer (Cat #R0278, Sigma-Aldrich, St. Louis, MO, USA) containing cOmplete™, Mini, EDTA-free Protease Inhibitor Cocktail (Cat #4693159001, Roche, Basel, Switzerland) from sub-confluent cells. Denaturing sample buffer was added, samples were boiled at 95° C. for ten minutes, and an equal amount of protein lysate was electrophoresed through NuPAGE™ 4 to 12%, bis-Tris, 1.5 mm, Mini Protein Gels (Invitrogen, Waltham, MA, USA) then transferred to PVDF membranes. The PVDF membrane was blocked with 5% non-fat milk (Sigma-Aldrich, St. Louis, MO, USA) in 1× TTBS. Primary antibodies were incubated with the transferred PVDF membrane in blocking buffer at 4° C. overnight. Secondary antibodies included Goat anti-Rabbit IgG (H+L) Secondary Antibody, HRP (Cat #31460, Invitrogen, Waltham, MA, USA), and Goat anti-Mouse IgG (H+L) Secondary Antibody, HRP (Cat #31430, Invitrogen, Waltham, MA, USA). The signal was detected using Pierce™ ECL Western Blotting Substrate (Cat #32106, Thermo Scientific, Waltham, MA, USA) and a Syngene Imaging System (RRID: SCR_015770).\n(§3) Elraglusib uprequlates tumor cell PD-L1 and proapoptotic pathway expression as well as downregulates immunosuppressive/angiogenic protein expression and pro-survival pathways. The inventors performed Western blot analyses on colorectal cancer cells (HCT-116, HT-29) treated with elraglusib over a 72-hour time course. […] The inventors observed increases in PD-L1 expression as the treatment duration increased. To further elucidate the elraglusib-mediated effects on tumor cell survival, the inventors probed for survival factors Bcl-2 and Survivin and noted decreases in protein expression in both cell lines, especially at the later timepoints (forty-eight hours, seventy-two hours). […] HCT116 cells are heterozygous for β-catenin, harboring one wild-type allele and one mutant allele with inactivation of one of the residues phosphorylated by GSK-3β that is frequently mutated in tumors. Kaler, Augenlicht, & Klampfer, PLoS ONE, 7, e45462 (2012). HT-29, KM12C, and SW480 cells harbor APC mutations. Rowan et al., Proc. Natl. Acad. Sci. USA, 97, 3352 (2000)."}, "HCT-116": {"tested_on": "HCT-116", "test": "Western blot analysis", "procedure": "as §1, §2, §3"}, "[1]": {"conditions": "as treatment duration increased"}, "[2]": {"conditions": "especially forty-eight, seventy-two hours"}, "[3]": {"conditions": "low dose, until the 48-hour timepoint"}},
  "data": [
    {"smiles": "Cn1cc(C2=C(c3coc4ccc(F)cc34)C(=O)NC2=O)c2cc3c(cc21)OCO3", "note": "[elraglusib]", "values": [
      {"measurement": "AGGF1 Fold Change", "setting": "KM12C", "value": "−1.6"},
      {"measurement": "BARD1 Fold Change", "setting": "KM12C", "value": "−3.03"},
      {"measurement": "BCL9 Fold Change", "setting": "KM12C", "value": "−1.55"},
      {"measurement": "BIK Fold Change", "setting": "KM12C", "value": 1.51},
      {"measurement": "BRAF Fold Change", "setting": "KM12C", "value": "−2.05"},
      {"measurement": "BRCA1 Fold Change", "setting": "KM12C", "value": "−1.71"},
      {"measurement": "BRD3 Fold Change", "setting": "KM12C", "value": "−1.58"},
      {"measurement": "CCND2 Fold Change", "setting": "KM12C", "value": "−1.58"},
      {"measurement": "CCNE1 Fold Change", "setting": "KM12C", "value": "−1.57"},
      {"measurement": "CCNE2 Fold Change", "setting": "KM12C", "value": "−2.64"},
      {"measurement": "CD109 Fold Change", "setting": "KM12C", "value": "−2.09"},
      {"measurement": "CDC25C Fold Change", "setting": "KM12C", "value": "−1.55"},
      {"measurement": "CDCA2 Fold Change", "setting": "KM12C", "value": "−1.51"},
      {"measurement": "CDK1 Fold Change", "setting": "KM12C", "value": "−2"},
      {"measurement": "CXCL1 Fold Change", "setting": "KM12C", "value": "−1.53"},
      {"measurement": "E2F7 Fold Change", "setting": "KM12C", "value": "−2.5"},
      {"measurement": "E2F8 Fold Change", "setting": "KM12C", "value": "−3.16"},
      {"measurement": "ERBB2IP Fold Change", "setting": "KM12C", "value": "−1.88"},
      {"measurement": "FZD3 Fold Change", "setting": "KM12C", "value": "−1.76"},
      {"measurement": "GDF15 Fold Change", "setting": "KM12C", "value": "−2.29"},
      {"measurement": "GZMA Fold Change", "setting": "KM12C", "value": 1.53},
      {"measurement": "IGF2BP2 Fold Change", "setting": "KM12C", "value": "−1.51"},
      {"measurement": "IL6ST Fold Change", "setting": "KM12C", "value": "−1.88"},
      {"measurement": "IL27RA Fold Change", "setting": "KM12C", "value": "−1.72"},
      {"measurement": "IL32 Fold Change", "setting": "KM12C", "value": 1.55},
      {"measurement": "IRF2BP2 Fold Change", "setting": "KM12C", "value": "−1.6"},
      {"measurement": "JMY Fold Change", "setting": "KM12C", "value": "−2.03"},
      {"measurement": "LTBP1 Fold Change", "setting": "KM12C", "value": "−2.24"},
      {"measurement": "MAP2K6 Fold Change", "setting": "KM12C", "value": "−3.66"},
      {"measurement": "MAP3K1 Fold Change", "setting": "KM12C", "value": "−1.92"},
      {"measurement": "MDM2 Fold Change", "setting": "KM12C", "value": "−1.61"},
      {"measurement": "MET Fold Change", "setting": "KM12C", "value": "−1.79"},
      {"measurement": "MKI67 Fold Change", "setting": "KM12C", "value": "−1.53"},
      {"measurement": "MTBP Fold Change", "setting": "KM12C", "value": "−1.58"},
      {"measurement": "MTDH Fold Change", "setting": "KM12C", "value": "−1.74"},
      {"measurement": "NFKBIA Fold Change", "setting": "KM12C", "value": "−2.51"},
      {"measurement": "NRP1 Fold Change", "setting": "KM12C", "value": "−1.88"},
      {"measurement": "TAB3 Fold Change", "setting": "KM12C", "value": "−1.63"},
      {"measurement": "TGFBR2 Fold Change", "setting": "KM12C", "value": "−2.11"},
      {"measurement": "TGFBR3 Fold Change", "setting": "KM12C", "value": "−3.72"},
      {"measurement": "TLR3 Fold Change", "setting": "KM12C", "value": "−2.25"},
      {"measurement": "TNFRSF1B Fold Change", "setting": "KM12C", "value": "−1.56"},
      {"measurement": "TNFRSF10A Fold Change", "setting": "KM12C", "value": "−1.54"},
      {"measurement": "TNFRSF11A Fold Change", "setting": "KM12C", "value": "−1.64"},
      {"measurement": "TNFRSF12A Fold Change", "setting": "KM12C", "value": 1.53},
      {"measurement": "TNIK Fold Change", "setting": "KM12C", "value": "−1.59"},
      {"measurement": "TRAF5 Fold Change", "setting": "KM12C", "value": "−1.52"},
      {"measurement": "TRAF6 Fold Change", "setting": "KM12C", "value": "−1.57"},
      {"measurement": "TRAIP Fold Change", "setting": "KM12C", "value": 1.53},
      {"measurement": "TRIB1 Fold Change", "setting": "KM12C", "value": "−2.37"},
      {"measurement": "NF-κB p65 expression", "setting": "HT-29; 72-hour time course", "value": "decreased expression"},
      {"measurement": "PD-L1 expression", "setting": "HT-29; [1]", "value": "increases"},
      {"measurement": "Bcl-2 protein expression", "setting": "HT-29; [2]", "value": "decreases"},
      {"measurement": "Survivin protein expression", "setting": "HT-29; [2]", "value": "decreases"},
      {"measurement": "cleaved PARP (cPARP)", "setting": "HT-29; [3]", "value": "little to no cleaved PARP"},
      {"measurement": "NF-κB p65 expression", "setting": "HCT-116; 72-hour time course", "value": "decreased expression"},
      {"measurement": "PD-L1 expression", "setting": "HCT-116; [1]", "value": "increases"},
      {"measurement": "Mcl-1 protein expression", "setting": "HCT-116; by the 24-hour timepoint", "value": "marked decreases"},
      {"measurement": "Bcl-2 protein expression", "setting": "HCT-116; [2]", "value": "decreases"},
      {"measurement": "Survivin protein expression", "setting": "HCT-116; [2]", "value": "decreases"},
      {"measurement": "cleaved PARP (cPARP)", "setting": "HCT-116; [3]", "value": "little to no cleaved PARP"}
    ]}
  ]
}
